“Also recorded” adds a separate entry of the source. Where two headings read alike, the source gives them in different places.
Assays:
[1] = Blood exposure of UCB-9260 in the mouse models; type: in vivo; conditions: mouse, blood
[2] = target: T1, TNF (L57F) (Homo sapiens, UniProt P01375, L133F); experiment: HEK reporter gene assay, L57F TNF; type: cell-based; conditions: 10 pM L57F TNF; HEK NFκΒ reporter
T1 construct: Human TNF (CID2043, UniProt P01375 residues 77–233); 6XHis-Smt3 (N, cleaved yes); host or cells: E. coli
T1 sequence (P01375 77-233 L133F): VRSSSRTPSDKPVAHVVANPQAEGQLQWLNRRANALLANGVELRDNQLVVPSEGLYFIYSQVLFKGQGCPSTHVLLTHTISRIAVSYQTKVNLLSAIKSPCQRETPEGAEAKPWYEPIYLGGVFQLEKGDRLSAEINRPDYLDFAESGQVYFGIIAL
Protocol: Stimulation of HEK-293 cells by TNF leads to activation of the NF-κB pathway. The HEK-Blue^TM CD40L SEAP (secreted embryonic alkaline phosphatase) reporter cell line used to determine TNF activity (InvivoGen, #hkb-CD40, cells were described as mycoplasma free when purchased and were tested using Mycoalert [Lonza] after each batch of assay vial preparation). Compounds were titrated in DMSO and pre-incubated with TNF at a concentration giving half maximal response (10 pM for human or 20 pM for mouse) or the anti-human TNFR1 agonist antibody (R&D Systems. #AF 225) for 1 h. Cells were added to the compound/stimulus mixture and further incubated for 18 h. SEAP was measured using the colorimetric substrate HEK-Blue Detect^TM or QUANTI-Blue^TM from InvivoGen. Percentage inhibitions for compound dilutions were calculated between a DMSO control and maximum inhibition (by excess anti-TNF biologic, or NF-κB inhibitor–TPCA-1 [Tocris #2559, R&D Systems]). The IC50 was determined as the point of inflexion between the fitted minimum and maximum of the compound dose response curve, calculated using 4PL fitted curve. Mean IC50s are reported as a mean of at least two experiments. Dose response curves for TNF and the anti-human TNFR1 agonist antibody are shown in Supplementary Fig. 9. […]
In this assay reduction is luminescence is due to cell killing by TNF and inhibition causes increased luminescence. […]

Structure (SMILES): Cc1ccc(C)c(Cn2c(C(O)c3ccncc3)nc3ccc(-c4cnn(C)c4)cc32)c1 (stereo not shown) [UCB-9260]
- concentration at 0.5 h ([1]; Balb/c, oral, 10 mg/kg, 10 mg/kg p.o., mouse TNF neutrophilia model, Fu 2.4%, read-out: Blood concentration 0.5h post dose (free)): 0.032 ± 0.002 µM
- concentration at 0.5 h ([1]; Balb/c, oral, 10 mg/kg, 10 mg/kg p.o., mouse TNF neutrophilia model, mean n=3 ± s.e.m., read-out: Blood concentration 0.5h post dose total): 1.32 µM
- concentration at 0.5 h ([1]; Balb/c, oral, 10 mg/kg, mouse TNF neutrophilia model, individual mice, 0.5h post dose, read-out: Total exposure): 1.22 µM
- concentration at 0.5 h ([1]; Balb/c, oral, 10 mg/kg, mouse TNF neutrophilia model, individual mice, read-out: Free exposure): 0.0359 µM
- concentration at 0.5 h ([1]; Balb/c, oral, 30 mg/kg, 30 mg/kg p.o., mouse TNF neutrophilia model, Fu 2.4%, read-out: Blood concentration 0.5h post dose (free)): 0.225 ± 0.023 µM
- concentration at 0.5 h ([1]; Balb/c, oral, 30 mg/kg, 30 mg/kg p.o., mouse TNF neutrophilia model, mean n=3 ± s.e.m., read-out: Blood concentration 0.5h post dose total): 9.36 µM
- concentration at 0.5 h ([1]; Balb/c, oral, 30 mg/kg, mouse TNF neutrophilia model, individual mice, 0.5h post dose, read-out: Total exposure): 9.98 µM
- concentration at 0.5 h ([1]; Balb/c, oral, 30 mg/kg, mouse TNF neutrophilia model, individual mice, read-out: Free exposure): 0.255 µM
- concentration at 0.5 h ([1]; Balb/c, oral, 100 mg/kg, 100 mg/kg p.o., human TNF neutrophilia model, Fu 2.4%, read-out: Blood concentration 0.5h post dose (free)): 0.716 ± 0.093 µM
- concentration at 0.5 h ([1]; Balb/c, oral, 100 mg/kg, 100 mg/kg p.o., human TNF neutrophilia model, mean n=3 ± s.e.m., read-out: Blood concentration 0.5h post dose total): 29.8 µM
- concentration at 0.5 h ([1]; Balb/c, oral, 100 mg/kg, 100 mg/kg p.o., mouse TNF neutrophilia model, Fu 2.4%, read-out: Blood concentration 0.5h post dose (free)): 1.35 µM
- concentration at 0.5 h ([1]; Balb/c, oral, 100 mg/kg, 100 mg/kg p.o., mouse TNF neutrophilia model, mean ± s.e.m., read-out: Blood concentration 0.5h post dose total): 56.1 µM
- concentration at 0.5 h ([1]; Balb/c, oral, 100 mg/kg, human TNF neutrophilia model, individual mice, 0.5h post dose, read-out: Total exposure): 29.1 µM
- concentration at 0.5 h ([1]; Balb/c, oral, 100 mg/kg, human TNF neutrophilia model, individual mice, read-out: Free exposure): 0.886 µM
- concentration at 0.5 h ([1]; Balb/c, oral, 300 mg/kg, 300 mg/kg p.o., human TNF neutrophilia model, Fu 2.4%, read-out: Blood concentration 0.5h post dose (free)): 1.19 µM
- concentration at 0.5 h ([1]; Balb/c, oral, 300 mg/kg, 300 mg/kg p.o., human TNF neutrophilia model, mean n=3 ± s.e.m., read-out: Blood concentration 0.5h post dose total): 49.5 µM
- concentration at 0.5 h ([1]; Balb/c, oral, 300 mg/kg, 300 mg/kg p.o., mouse TNF neutrophilia model, Fu 2.4%, read-out: Blood concentration 0.5h post dose (free)): 1.27 µM
- concentration at 0.5 h ([1]; Balb/c, oral, 300 mg/kg, 300 mg/kg p.o., mouse TNF neutrophilia model, mean n=3 ± s.e.m., read-out: Blood concentration 0.5h post dose total): 53 µM
- concentration at 0.5 h ([1]; Balb/c, oral, 300 mg/kg, human TNF neutrophilia model, individual mice, 0.5h post dose, read-out: Total exposure): 41.5 µM
- concentration at 0.5 h ([1]; Balb/c, oral, 300 mg/kg, human TNF neutrophilia model, individual mice, read-out: Free exposure): 1.19 µM
- concentration at 0.5 h ([1]; Balb/c, oral, 300 mg/kg, mouse TNF neutrophilia model, individual mice, 0.5h post dose, read-out: Total exposure): 63 µM
- concentration at 0.5 h ([1]; Balb/c, oral, 300 mg/kg, mouse TNF neutrophilia model, individual mice, read-out: Free exposure): 1.17 µM
- concentration at 1 h ([1]; male, Balb/c, oral, 10 mg/kg, 10 mg/kg p.o., zymosan model, Fu 2.4%, read-out: Blood concentration 1h post dose (free)): 0.002 ± 0.0004 µM
- concentration at 1 h ([1]; male, Balb/c, oral, 10 mg/kg, 10 mg/kg p.o., zymosan model, mean n=8 ± s.e.m., read-out: Blood concentration 1h post dose (total)): 0.086 ± 0.015 µM
- concentration at 1 h ([1]; male, Balb/c, oral, 30 mg/kg, 30 mg/kg p.o., zymosan model, Fu 2.4%, read-out: Blood concentration 1h post dose (free)): 0.07 ± 0.007 µM
- concentration at 1 h ([1]; male, Balb/c, oral, 30 mg/kg, 30 mg/kg p.o., zymosan model, mean n=8 ± s.e.m., read-out: Blood concentration 1h post dose (total)): 2.9 µM
- concentration at 1 h ([1]; male, Balb/c, oral, 30 mg/kg, zymosan model, individual mice, read-out: free exposure 1h post dose): 0.0468 µM
- concentration at 1 h ([1]; male, Balb/c, oral, 30 mg/kg, zymosan model, individual mice, read-out: total exposure 1h post dose): 1.95 µM
- concentration at 1 h ([1]; male, Balb/c, oral, 100 mg/kg, 100 mg/kg p.o., zymosan model, Fu 2.4%, read-out: Blood concentration 1h post dose (free)): 0.63 ± 0.098 µM
- concentration at 1 h ([1]; male, Balb/c, oral, 100 mg/kg, 100 mg/kg p.o., zymosan model, mean n=8 ± s.e.m., read-out: Blood concentration 1h post dose (total)): 26.3 µM
- concentration at 1 h ([1]; male, Balb/c, oral, 300 mg/kg, 300 mg/kg p.o., zymosan model, Fu 2.4%, read-out: Blood concentration 1h post dose (free)): 0.677 ± 0.121 µM
- concentration at 1 h ([1]; male, Balb/c, oral, 300 mg/kg, 300 mg/kg p.o., zymosan model, mean n=8 ± s.e.m., read-out: Blood concentration 1h post dose (total)): 28.2 µM
- concentration at 1 h ([1]; 150 mg/kg, 150 mg/kg B.I.D., CAIA model, mean ± s.e.m., read-out: Blood concentration total, 1h post dose): 17.3 µM
- concentration at 6 h ([1]; 150 mg/kg, 150 mg/kg B.I.D., CAIA model, mean ± s.e.m., read-out: Blood concentration total, 6h post dose): 9.97 µM
- concentration at 1 h ([1]; 150 mg/kg, 150 mg/kg B.I.D., CAIA model, read-out: Blood concentration (free), 1h post dose): 0.415 ± 0.1 µM
- concentration at 6 h ([1]; 150 mg/kg, 150 mg/kg B.I.D., CAIA model, read-out: Blood concentration (free), 6h post dose): 0.239 ± 0.101 µM
- concentration at 0.5 h ([1]; oral, 10 mg/kg, 10 mg/kg p.o., human TNF neutrophilia model, Fu 2.4%, read-out: Blood concentration 0.5h post dose (free)): 0.02 ± 0.004 µM
- concentration at 0.5 h ([1]; oral, 30 mg/kg, 30 mg/kg p.o., human TNF neutrophilia model, Fu 2.4%, read-out: Blood concentration 0.5h post dose (free)): 0.203 ± 0.059 µM
- concentration at 0.5 h ([1]; oral, 30 mg/kg, 30 mg/kg p.o., human TNF neutrophilia model, mean n=3 ± s.e.m., read-out: Blood concentration 0.5h post dose total): 8.46 µM
- inhibition of L57F TNF [2]: did not inhibit; also recorded: no activity
